According to publication PMC3266168 (Journal of Medicinal Chemistry, 2011):
Values after ≈ are worked out from the molar mass of the structure shown.

Assays:
F. tularensis FabI = F. tularensis FabI (Francisella tularensis subsp. tularensis, UniProt Q5NGQ3); format: biochemical
E.coli (BW251113) = format: cell-based
[1] = test system: E.coli TolC mutant (BW251113-TolC-); format: cell-based
F. tularensis = test: microbe, parasite or virus in culture; format: cell-based; settings: Francisella tularensis

F. tularensis FabI, sequence (Q5NGQ3 1-260): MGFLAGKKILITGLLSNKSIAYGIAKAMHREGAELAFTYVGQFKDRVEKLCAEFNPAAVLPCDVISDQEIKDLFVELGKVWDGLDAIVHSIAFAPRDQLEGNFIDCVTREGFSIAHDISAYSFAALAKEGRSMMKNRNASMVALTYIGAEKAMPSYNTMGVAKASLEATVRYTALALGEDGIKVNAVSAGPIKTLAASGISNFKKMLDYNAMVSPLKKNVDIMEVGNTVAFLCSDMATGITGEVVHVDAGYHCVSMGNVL

Cc1cc2ncn(Cc3ccc(Cl)c(Cl)c3)c2cc1C [Compound 9]
fold increase in activity (IC50) over hit compound 2 (F. tularensis FabI): 100 fold
MIC (E.coli (BW251113)): >200 (3) μg/mL
MIC [1]: 6.25 (3) μg/mL

Nc1ncc(Cc2ccc(Cl)cc2)s1 [Compound 1]
L.E. (Ligand Efficiency) (F. tularensis FabI): 0.41

Clc1ccc(Cn2cnc3ccccc32)cc1 [Compound 2, 1-(4-chlorobenzyl) benzimidazole]
L.E. (Ligand Efficiency) (F. tularensis FabI): 0.37

Clc1ccc(Cn2cnc3ccccc32)cc1Cl [Compound 6]
fold increase in activity (IC50) over hit compound 2 (F. tularensis FabI): ~10 fold
MIC (F. tularensis): 15.6 µg/mL (≈ 56.3 µM)
